Measurements from paper PMC5053523, “In Vitro Antibacterial Activity of Rhodanine Derivatives against Pathogenic Clinical Isolates” (PLoS ONE, 2016).
Converted amounts (≈) assume the structure as drawn. Like-named read-outs stand apart in the source and are kept apart here.

What was measured:
Escherichia coli O157:H7 = assay: MIC with/without PMBN, Escherichia coli O157:H7; assay type: cell-based
How it was run: (§1)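 Rhodanines and control antibiotics are tested for MIC against Gram-negative bacteria while a sub-inhibitory level of colistin or PMBN is present. A strain of E. coli lacking the AcrAB efflux pump (SM1411ΔacrAB) serves as an additional test organism.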

Escherichia coli Δ acrAB = assay: MIC against E. coli 1411 and AcrAB efflux pump deficient E. coli SM1411Δ acrAB; assay type: cell-based
How it was run: as §1

Mycobacterium smegmatis = assay: Broth microdilution MIC/MBC, Mycobacterium smegmatis; assay type: cell-based; conditions: Mycolicibacterium smegmatis, ATCC14468, M. Smegmatis ATCC 14468
[1] = system: vancomycin resistant enterococci (VRE) E. faecium; assay: Broth microdilution MIC/MBC, VRE E. faecium; assay type: cell-based; conditions: for MIC: read-out: MIC
Bacillus Strains = assay: Broth microdilution MIC50/MIC90 and MIC range, Bacillus strains panel; assay type: cell-based, Bacillus spp.; conditions: 10 Bacillus strains
From the text: The broth microdilution technique was used, followed by subculturing on agar plates that were rhodanine—free. […] The MICs reported represent the lowest concentration of each compound necessary to inhibit bacterial growth and the MBCs represent the lowest concentration required to reduce the initial bacterial inoculum by ≥ 99.9%.

B. cereus = assay: Broth microdilution MIC/MBC, B. cereus; assay type: cell-based; conditions: Bacillus cereus; for MBC: read-out: MBC; for MIC: read-out: MIC
From the text: The broth microdilution technique was used, followed by subculturing on agar plates that were rhodanine—free.

P. aeruginosa = assay: Broth microdilution MIC, P. aeruginosa; assay type: cell-based; conditions: Pseudomonas aeruginosa
Clostridium difficile = assay: MIC against Clostridium difficile, anaerobic broth dilution; assay type: cell-based; conditions: Clostridioides difficile
How it was run: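 Clinical C. difficile isolates grown anaerobically 48 h at 37 °C, suspended to 0.5 McFarland and diluted 1:300 in pre-reduced supplemented Brain Heart Infusion broth. Compounds serially diluted; plates incubated anaerobically at 37 °C for 48 h. MIC = lowest concentration with no visible growth.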

[2] = system: vancomycin resistant enterococci (VRE) E. faecalis; assay: Broth microdilution MIC/MBC, VRE E. faecalis; assay type: cell-based; conditions: for MIC: read-out: MIC
Salmonella Typhimurium = assay: MIC with/without PMBN, Salmonella Typhimurium; assay type: cell-based
How it was run: as §1

[3] = system: Vancomycin Resistant Staphylococcus aureus (VRSA); assay: Broth microdilution MIC/MBC, VRSA; assay type: cell-based; conditions: for MBC / MIC: VRSA
[4] = E. faecium HM 968 Strain ERV102
[5] = E. faecium NR31914 Strain E0120
[6] = E. faecium Patient #1–1 NR-31903
[7] = NRS201, B. cereus NRS 201 NR-2488
[8] = E. faecalis NR31972 Strain SF 28073

`O=C(O)[C@H](Cc1ccccc1)N1C(=O)/C(=C/c2cccc(-c3ccccc3)c2)SC1=S` [Rh 5] gave an MIC (Escherichia coli O157:H7; Escherichia coli O157:H7 ATCC 35150, PMBN (+) 4 μg/mL, read-out: MIC) of 8 µM (≈ 3.56 µg/mL), an MIC (Escherichia coli O157:H7; Escherichia coli O157:H7 ATCC 700728, PMBN (+) 4 μg/mL, read-out: MIC) of over 64 µM and an MIC (Escherichia coli O157:H7; Escherichia coli, ATCC35150) of over 256 µM. It also gave an MIC (Escherichia coli O157:H7; Escherichia coli, ATCC700728) of over 128 µM, an MIC (Escherichia coli Δ acrAB; E.coli 1411) of over 64 µM and an MIC (Escherichia coli Δ acrAB; E.coli 1411 SM (Δ acrAB, AcrAB efflux pump deficient)) of over 64 µM. It also gave an MBC (Mycobacterium smegmatis; read-out: MBC) of 16 µM (≈ 7.13 µg/mL), an MIC (Mycobacterium smegmatis; read-out: MIC) of 16 µM (≈ 7.13 µg/mL) and an MBC ([1]; E. faecium E417 HM-965) of over 64 µM. It also gave an MIC ([1]; E. faecium E417 HM-965) of 8 µM (≈ 3.56 µg/mL), an MBC ([1]; E. faecium E1071 NR-28978) of over 64 µM and an MIC ([1]; E. faecium E1071 NR-28978) of 16 µM (≈ 7.13 µg/mL). For the same compound, the MBC [1, 4] was 64 µM (≈ 28.5 µg/mL), the MIC [1, 4] was 16 µM (≈ 7.13 µg/mL) and the MBC [1, 5] was over 64 µM. For the same compound, the MIC [1, 5] was 16 µM (≈ 7.13 µg/mL), the MBC [1, 6] was 64 µM (≈ 28.5 µg/mL) and the MIC [1, 6] was 8 µM (≈ 3.56 µg/mL). The MIC50 (Bacillus Strains) was 4 µM (≈ 1.78 µg/mL), the MIC90 (Bacillus Strains) was 8 µM (≈ 3.56 µg/mL) and the MBC (B. cereus; B. cereus BAG1O-2 NR-28582) was 4 µM (≈ 1.78 µg/mL). The MIC (B. cereus; B. cereus BAG1O-2 NR-28582) was 4 µM (≈ 1.78 µg/mL), the MBC (B. cereus; B. cereus BAG1X1-1 NR-28575) was 4 µM (≈ 1.78 µg/mL) and the MIC (B. cereus; B. cereus BAG1X1-1 NR-28575) was 4 µM (≈ 1.78 µg/mL). It also gave an MBC (B. cereus; B. cereus BAG1X2-1 NR-28578) of 4 µM (≈ 1.78 µg/mL), an MIC (B. cereus; B. cereus BAG1X2-1 NR-28578) of 4 µM (≈ 1.78 µg/mL) and an MBC (B. cereus; B. cereus G9241 NR-9564) of 8 µM (≈ 3.56 µg/mL). The MIC (B. cereus; B. cereus G9241 NR-9564) was 8 µM (≈ 3.56 µg/mL), the MBC (B. cereus; B. cereus VD014 NR-22141) was 8 µM (≈ 3.56 µg/mL) and the MIC (B. cereus; B. cereus VD014 NR-22141) was 4 µM (≈ 1.78 µg/mL). The MBC (B. cereus; B. cereus VD115 NR-22148) was 4 µM (≈ 1.78 µg/mL), the MIC (B. cereus; B. cereus VD115 NR-22148) was 4 µM (≈ 1.78 µg/mL) and the MBC (B. cereus; B. cereus VD148 NR-22150) was 4 µM (≈ 1.78 µg/mL). It also gave an MIC (B. cereus; B. cereus VD148 NR-22150) of 4 µM (≈ 1.78 µg/mL), an MBC (B. cereus; [7]) of 4 µM (≈ 1.78 µg/mL) and an MIC (B. cereus; [7]) of 4 µM (≈ 1.78 µg/mL). For the same compound, the MIC (P. aeruginosa; ATCC9721) was over 128 µM, the MIC (P. aeruginosa; ATCC15442) was over 128 µM and the MIC (Clostridium difficile; C. difficile HM-88) was 4 µM (≈ 1.78 µg/mL). The MIC (Clostridium difficile; C. difficile HM-745) was 4 µM (≈ 1.78 µg/mL), the MIC (Clostridium difficile; C. difficile HM-746) was 2 µM (≈ 0.891 µg/mL) and the MIC (Clostridium difficile; C. difficile Isolate-1 NR-13427) was 4 µM (≈ 1.78 µg/mL). The MIC (Clostridium difficile; C. difficile Toxigenic Strain P8 NR-32888) was 4 µM (≈ 1.78 µg/mL), the MBC ([2]; E. faecalis ERV103 HM-934) was 16 µM (≈ 7.13 µg/mL) and the MIC ([2]; E. faecalis ERV103 HM-934) was 16 µM (≈ 7.13 µg/mL). The MBC [2, 8] was 16 µM (≈ 7.13 µg/mL), the MIC [2, 8] was 16 µM (≈ 7.13 µg/mL) and the MBC ([2]; E. faecalis R712 HM-335) was 16 µM (≈ 7.13 µg/mL). For the same compound, the MIC ([2]; E. faecalis R712 HM-335) was 8 µM (≈ 3.56 µg/mL), the MBC ([2]; E. faecalis S613 HM-334) was 16 µM (≈ 7.13 µg/mL) and the MIC ([2]; E. faecalis S613 HM-334) was 16 µM (≈ 7.13 µg/mL). The MBC ([2]; E. faecalis TX0104 HM-201) was 16 µM (≈ 7.13 µg/mL), the MIC ([2]; E. faecalis TX0104 HM-201) was 16 µM (≈ 7.13 µg/mL) and the MIC (Salmonella Typhimurium; Salmonella Typhimurium ATCC 700720, PMBN (+) 4 μg/mL, read-out: MIC) was over 128 µM. For the same compound, the MIC (Salmonella Typhimurium; Salmonella enterica, ATCC 700720 / TYPHIMURIUM) was over 128 µM, the MIC50 ([3]; 15 VRSA strains, read-out: MIC 50) was 8 µM (≈ 3.56 µg/mL) and the MIC90 ([3]; 15 VRSA strains, read-out: MIC 90) was 8 µM (≈ 3.56 µg/mL). For the same compound, the MBC ([3]; VRSA 1, read-out: MBC) was 16 µM (≈ 7.13 µg/mL), the MIC ([3]; VRSA 1, read-out: MIC) was 8 µM (≈ 3.56 µg/mL) and the MBC ([3]; VRSA 2, read-out: MBC) was 8 µM (≈ 3.56 µg/mL). The MIC ([3]; VRSA 2, read-out: MIC) was 8 µM (≈ 3.56 µg/mL), the MBC ([3]; VRSA 3a, read-out: MBC) was 16 µM (≈ 7.13 µg/mL) and the MIC ([3]; VRSA 3a, read-out: MIC) was 8 µM (≈ 3.56 µg/mL). For the same compound, the MBC ([3]; VRSA 3b, read-out: MBC) was 16 µM (≈ 7.13 µg/mL), the MIC ([3]; VRSA 3b, read-out: MIC) was 8 µM (≈ 3.56 µg/mL) and the MBC ([3]; VRSA 4, read-out: MBC) was 16 µM (≈ 7.13 µg/mL). The MIC ([3]; VRSA 4, read-out: MIC) was 8 µM (≈ 3.56 µg/mL), the MBC ([3]; VRSA 5, read-out: MBC) was 16 µM (≈ 7.13 µg/mL) and the MIC ([3]; VRSA 5, read-out: MIC) was 8 µM (≈ 3.56 µg/mL). The MBC ([3]; VRSA 6, read-out: MBC) was 16 µM (≈ 7.13 µg/mL), the MIC ([3]; VRSA 6, read-out: MIC) was 8 µM (≈ 3.56 µg/mL) and the MBC ([3]; VRSA 7, read-out: MBC) was 32 µM (≈ 14.3 µg/mL). The MIC ([3]; VRSA 7, read-out: MIC) was 8 µM (≈ 3.56 µg/mL), the MBC ([3]; VRSA 8, read-out: MBC) was 16 µM (≈ 7.13 µg/mL) and the MIC ([3]; VRSA 8, read-out: MIC) was 8 µM (≈ 3.56 µg/mL). For the same compound, the MBC ([3]; VRSA 9, read-out: MBC) was 16 µM (≈ 7.13 µg/mL), the MIC ([3]; VRSA 9, read-out: MIC) was 16 µM (≈ 7.13 µg/mL) and the MBC ([3]; VRSA 10, read-out: MBC) was 16 µM (≈ 7.13 µg/mL). It also gave an MIC ([3]; VRSA 10, read-out: MIC) of 8 µM (≈ 3.56 µg/mL), an MBC ([3]; VRSA 11a, read-out: MBC) of 16 µM (≈ 7.13 µg/mL) and an MIC ([3]; VRSA 11a, read-out: MIC) of 8 µM (≈ 3.56 µg/mL). The MBC ([3]; VRSA 11b, read-out: MBC) was 16 µM (≈ 7.13 µg/mL), the MIC ([3]; VRSA 11b, read-out: MIC) was 8 µM (≈ 3.56 µg/mL) and the MBC ([3]; VRSA 12, read-out: MBC) was 16 µM (≈ 7.13 µg/mL). For the same compound, the MIC ([3]; VRSA 12, read-out: MIC) was 8 µM (≈ 3.56 µg/mL), the MBC ([3]; VRSA 13, read-out: MBC) was 16 µM (≈ 7.13 µg/mL) and the MIC ([3]; VRSA 13, read-out: MIC) was 8 µM (≈ 3.56 µg/mL).
